# pIC50: −log10 of the molar value.
# Assays:
# [1] = molecular target: neuraminidase (NA) of A(H3N2) of 2018–19 (Influenza A virus (H3N2), UniProt A0A193ACB1); format: biochemical; conditions: n = 170; read-out: Median IC50 + SD
# [2] = system: influenza A(H3N2) viruses isolated in the 2018–19 season in Japan; assay: microbe, parasite or virus in culture; format: cell-based; conditions: n = 83, read-out: Median IC50 + SD
Compound,pIC50 [1],pIC50 [2]
"CCC(CC)[C@H](NC(C)=O)[C@@H]1[C@H](O)[C@@H](C(=O)O)C[C@H]1N=C(N)N [Peramivir, peramivir]",9.89,–

# Reference: article PMC6810216, “Human-to-Human Transmission of Influenza A(H3N2) Virus with Reduced Susceptibility to Baloxavir, Japan, February 2019” (Emerging Infectious Diseases, 2019)
